# Reference: publication PMC4772679 (Environmental toxicology and chemistry / SETAC, 2015)
# Where two headings read alike, the source gives them in different places.
# How the values were obtained:
# BG1LucERβc9 cells [1] = assay: Antagonism of agonist-induced luciferase activity in BG1LucERβc9 cells; format: cell-based, human; settings: for inhibition of E2-inducible reporter gene expression in BG1LucERβc9 cells: Supplemental Figure S5
# BG1Luc4E2 cells [2] = assay: Luciferase induction in stably transfected BG1Luc4E2 cells; format: cell-based, human; settings: for MDL (minimal detection limit) [M], BG1Luc4E2 / EC50 / luciferase activity in BG1Luc4E2 cells, initial library screen: 24 h; for EC50: read-out: EC50 [M], BG1Luc4E2; for Maximum Induction (RLU), BG1Luc4E2: at 30 µM Genistein, 10 µM Br-ERβ-041, 0.1 nM E2, 1 µM PPT; for luciferase activity in BG1Luc4E2 cells, initial library screen: 10 µM, normalized to 1 nM E2, single screen in triplicate
# BG1LucERβc9 cells [3] = assay: Luciferase induction in stably transfected BG1LucERβc9 cells; format: cell-based, human; settings: for MDL (minimal detection limit) [M], BG1LucERβc9 / EC50: 24 h; for EC50: read-out: EC50 [M], BG1LucERβc9; for Maximum Induction (RLU), BG1LucERβc9: at 30 µM Genistein, 10 µM Br-ERβ-041, 0.1 nM E2, 1 µM PPT
# ERβ = ERβ (Homo sapiens, UniProt Q92731); assay: ER-responsive luciferase reporter; format: cell-based; settings: SKBR3 cells, ERβ expression plasmid, 24 h, mean ± SD of three experiments
# Chain of ERβ (Q92731 whole entry): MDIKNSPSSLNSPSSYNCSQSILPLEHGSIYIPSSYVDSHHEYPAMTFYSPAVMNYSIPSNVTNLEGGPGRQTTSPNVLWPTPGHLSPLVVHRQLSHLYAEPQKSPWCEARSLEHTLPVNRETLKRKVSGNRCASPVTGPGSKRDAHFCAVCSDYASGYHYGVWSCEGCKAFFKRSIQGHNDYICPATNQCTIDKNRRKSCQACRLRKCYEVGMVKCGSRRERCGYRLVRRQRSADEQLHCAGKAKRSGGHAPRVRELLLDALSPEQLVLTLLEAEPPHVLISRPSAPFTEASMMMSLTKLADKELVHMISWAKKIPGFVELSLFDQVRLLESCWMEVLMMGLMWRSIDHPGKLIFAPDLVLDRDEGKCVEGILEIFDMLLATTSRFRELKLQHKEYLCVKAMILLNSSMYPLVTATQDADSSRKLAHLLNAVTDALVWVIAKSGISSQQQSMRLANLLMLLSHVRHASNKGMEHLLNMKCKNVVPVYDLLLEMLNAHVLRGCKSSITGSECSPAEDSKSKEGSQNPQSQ
# ERα = molecular target: T1, ERα (Homo sapiens, UniProt P03372); assay: ER-responsive luciferase reporter; format: cell-based; settings: read-out: EC50 [M], ERα; SKBR3 cells, ERα expression plasmid, 24 h, mean ± SD of three experiments
# T1 sequence (P03372 1-595): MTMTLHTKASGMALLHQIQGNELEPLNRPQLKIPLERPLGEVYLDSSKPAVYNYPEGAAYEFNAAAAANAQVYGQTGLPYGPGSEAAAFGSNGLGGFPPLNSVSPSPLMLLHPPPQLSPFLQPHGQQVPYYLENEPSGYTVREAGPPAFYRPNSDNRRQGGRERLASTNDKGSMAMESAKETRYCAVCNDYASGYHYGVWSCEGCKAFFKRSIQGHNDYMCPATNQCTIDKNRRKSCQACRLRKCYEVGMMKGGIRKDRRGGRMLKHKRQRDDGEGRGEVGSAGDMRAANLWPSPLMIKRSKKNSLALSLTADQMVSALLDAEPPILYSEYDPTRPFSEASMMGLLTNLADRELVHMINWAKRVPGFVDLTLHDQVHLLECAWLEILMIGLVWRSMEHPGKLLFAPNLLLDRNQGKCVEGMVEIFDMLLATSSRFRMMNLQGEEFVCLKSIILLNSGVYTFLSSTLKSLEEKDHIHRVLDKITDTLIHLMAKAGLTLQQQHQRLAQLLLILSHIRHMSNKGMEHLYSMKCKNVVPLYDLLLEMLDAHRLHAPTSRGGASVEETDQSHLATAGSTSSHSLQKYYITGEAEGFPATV
# BG1Luc4E2 cells [4] = assay: Antagonism of agonist-induced luciferase activity in BG1Luc4E2 cells; format: cell-based, human; settings: p < 0.05, Student's t-test
# [5] = mean ± SD of 8–16 experiments, genistein and Br-ERβ-041 at 50% of maximum E2 activity
structure (smiles),measurement,setting,value
"CC/C(=C(\c1ccc(O)cc1)c1ccc(OCCN(C)C)cc1)c1ccccc1 [Chemical 4-OHT, 4-hydroxy tamoxifen]",inhibition of E2-inducible reporter gene expression in BG1LucERβc9 cells,BG1LucERβc9 cells [1],inhibit E2-inducible reporter gene expression
"C[C@]12CC[C@@H]3c4ccc(O)cc4CC[C@H]3[C@@H]1CC[C@@H]2O [Chemical E2, 17β-estradiol]","MDL (minimal detection limit) [M], BG1Luc4E2",BG1Luc4E2 cells [2],3e-12 M
same,EC50,BG1Luc4E2 cells [2]; Homo sapiens,1.6e-11 M
same,"Maximum Induction (RLU), BG1Luc4E2",BG1Luc4E2 cells [2],"10,594 ± 250 RLU"
same,"MDL (minimal detection limit) [M], BG1LucERβc9",BG1LucERβc9 cells [3],1e-12 M
same,EC50,BG1LucERβc9 cells [3]; Homo sapiens,1.3e-11 M
same,"Maximum Induction (RLU), BG1LucERβc9",BG1LucERβc9 cells [3],"5,236 ± 71 RLU"
"CCNc1nc(Cl)nc(NC(C)(C)C#N)n1 [Chemical P12, cyanazine]","luciferase activity in BG1Luc4E2 cells, initial library screen",BG1Luc4E2 cells [2],not inducing significant luciferase activity above background
"CC(C)(c1ccc(O)cc1)c1ccc(O)cc1 [Chemical P159, bisphenol A]","luciferase activity in BG1Luc4E2 cells, initial library screen",BG1Luc4E2 cells [2],high activity
"O=c1c(-c2ccc(O)cc2)coc2cc(O)cc(O)c12 [Genistein, genistein]","MDL (minimal detection limit) [M], BG1Luc4E2",BG1Luc4E2 cells [2],1e-07 M
same,ERα-dependent reporter gene induction in BG1Luc4E2 cells at low concentration,"BG1Luc4E2 cells [2]; Br-ERβ-041 31.6 nM, genistein 10 nM, preliminary studies, data not shown",failed to induce
same,EC50,BG1Luc4E2 cells [2]; Homo sapiens,1.7e-07 M
same,"Maximum Induction (RLU), BG1Luc4E2",BG1Luc4E2 cells [2],"17,623 ± 575 RLU"
same,"MDL (minimal detection limit) [M], BG1LucERβc9",BG1LucERβc9 cells [3],1e-08 M
same,EC50,BG1LucERβc9 cells [3]; Homo sapiens,2e-08 M
same,"Maximum Induction (RLU), BG1LucERβc9",BG1LucERβc9 cells [3],"8,804 ± 306 RLU"
"CCCc1c(-c2ccc(O)cc2)nn(-c2ccc(O)cc2)c1-c1ccc(O)cc1 [PPT, 4,4’,4”-(4-Proply-[1H]-pyrazole-1,3,5-triyl)trisphenol]","EC50 [M], ERβ",ERβ,No induction
same,"MDL (minimal detection limit) [M], BG1Luc4E2",BG1Luc4E2 cells [2],1e-10 M
same,"Maximum Induction (RLU), BG1Luc4E2",BG1Luc4E2 cells [2],"11,422 ± 356 RLU"
same,EC50,BG1Luc4E2 cells [2]; [5],6.7e-10 M
same,EC50,ERα,2.5e-10 M
same,"MDL (minimal detection limit) [M], BG1LucERβc9",BG1LucERβc9 cells [3],1e-10 M
same,"Maximum Induction (RLU), BG1LucERβc9",BG1LucERβc9 cells [3],"7,017 ± 188 RLU"
same,EC50,BG1LucERβc9 cells [3]; [5],3.2e-09 M
"C[C@]12CC[C@@H]3c4ccc(O)cc4C[C@@H](CCCCCCCCC[S+]([O-])CCCC(F)(F)C(F)(F)F)[C@H]3[C@@H]1CC[C@@H]2O (stereo partly drawn) [fulvestrant, Fulvestrant]",inhibition of E2-inducible reporter gene expression in BG1LucERβc9 cells,BG1LucERβc9 cells [1],inhibit E2-inducible reporter gene expression
same,"concentration-dependent antagonism of E2-induced luciferase activity, BG1LucERβc9 vs BG1Luc4E2 cells",BG1LucERβc9 cells [1]; comparison of both cell lines,comparable
same,antagonism of Br-ERβ-041 induced activity in BG1Luc4E2 cells versus BG1LucERβc9 cells,BG1Luc4E2 cells [4],significantly more potent antagonist
